{"source": "patent US20250250559A1", "about": "“METHOD TO ANALYZE AND OPTIMIZE GENE EDITING MODULES AND DELIVERY APPROACHES” (Hoffmann-La Roche Inc., priority 2016, published 2025)", "key": {"DPH1 gene [1]": {"system": "DPH1 gene", "experiment": "HRM-PCR on single cells followed by DT sensitivity assay", "assay_type": "cell-based, human", "conditions": "FIG. 5B", "procedure": "Cells which have only one allele of dph1 or dph2 modified are not toxin resistant. To identify and quantify those events, high resolution melting (HRM) PCR was applied in a similar manner as described by Stahl et al (Stahl, et al. 2015): 24 h after transfection, single cells were deposited in 96-well plates by FACS (FACSAria, BD biosciences) and grown until confluency. Cells were washed with PBS and lysed by addition of 40 μL cell lysis buffer (Roche) per well. After 15 mins incubation at RT on a plate shaker (Titramax 1000, Heidolph) at 750 rpm, the cell lysate was 1:5 diluted with PCR grade H2O. 5 μL cell lysate was mixed with a High resolution melting (HRM) master mix (Roche) and with primer spanning the gRNA target sequence. PCR and HRM were performed in an LC480 II (Roche) according the manufacturer's protocol. Clones with edited target genes were identified by their altered melting curve compared to MCF7-WT cells.\nTherefore, such clones were expanded (without toxin or Puromycin selection) and subjected to cell viability analyses to discriminate between heterozygous (toxin sensitive) and homozygous (resistant) knockout cells. […] Metabolic activity of surviving cells was assessed by a CellTiterGlo® Luminescent Viability Assay (Promega) performed according to the manufacturer's specifications."}, "DPH1 gene [2]": {"system": "DPH1 gene", "experiment": "PM resistant colony count after DPH1 gene editing (PAC cassette integration)", "assay_type": "cell-based, human", "conditions": "for # of PM resistant colonies (40,000 seeded cells): MCF7, individual samples A-D; for # of PM resistant colonies (mean of the samples) / # of PM resistant colonies: TF eff. = 38%; for # of PM resistant colonies: DPH1 assay (integr. vs. k.o.), individual samples; for # of PM resistant colonies (80,000 seeded cells): DPH1 assay editing entities, MCF-7, individual replicates, TF eff. = 33%", "procedure": "MCF7 cells (Brooks, et al. 1973) were originally obtained from ATCC (subsequently propagated in an in-house cell bank) and maintained in RPMI […] medium supplemented with 10% FCS, 2 mM L-Glutamine and penicillin/streptomycin at 37° C. and 85% humidity. For transfection of plasmids harboring gene-editing modules, 3,000,000 cells were seeded in a 10 cm diameter culture dish and cultivated at 37° C. and humidified 5% CO2. 24 h after seeding, cells were transfected with 20 μg total DNA using JetPEI (Polyplus) according to the manufacturer's protocol but with an N/P ratio of 6:1. Transfection efficiency was determined after 24 h by flow cytometry (FACS Calibur, BD biosciences) of cells that were transfected with a modified eGFP expression plasmid (Zhang, et al. 1996).\nPlasmids encoding CRISPR/Cas9 gene-editing entities (i.e. knock-out and integration systems) against Dph1 (gRNA target sequence: […] (SEQ ID NO: 01) derived from RefSeq: NM_001383) and Dph2 (gRNA target sequence: […] (SEQ ID NO: 02) derived from RefSeq: NM_001039589, NM_001384), and scrambled control (gRNA sequence: […] (SEQ ID NO: 03)) were obtained from OriGene. This system comprises one plasmid expressing a ˜100 nt gRNA under control of a U6 promoter as well as Cas9 nuclease under control of a CMV promoter and a Donor plasmid with a promoter-less GFP/PM expression cassette flanked by homologous arms to the target gene (Dph1 or Dph2). Additional Dph1 gRNA sequence variants of different sizes (OriGene) […]\nMCF7 cells which have all chromosomal copies of DPH1 or DPH2 inactivated are resistant to diphtheria toxin (Stahl, et al. 2015). Thus, occurrence and frequency of toxin resistant cells/colonies upon CRISPR/Cas inflicted gene inactivation provides a measure for efficiency of inactivation of all gene copies. Therefore, MCF/cells were transfected as described in Example 1 with (i) a GFP expression plasmid as transfection control, (ii) the CRISPR/Cas9 Dph1 or Dph2 knock-out/integration system and (iii) knock-out/integration entities containing a scrambled gRNA to determine Cas9 independent integration frequencies. After determination of transfection efficiency, cells were seeded in 6-well plates. […] RPMI medium was exchanged by RPMI medium containing DT or PM or both toxins 3 days after cell seeding. Exchange of medium was repeated every 2-3 days until all dead cells were removed from the plates and actively growing colonies could be detected via microscopic inspection. Thereafter (between day 12 and day 14 after start of toxin exposure), cells were washed 3 times with PBS and subsequently stained with ice cold methylene blue (0.2% in 50% EtOH). Methylene blue solution was subsequently removed and the plates were carefully washed under running water. Finally, cell colonies were counted under the microscope with a 5 mm grid foil.\nCRISPR/Cas module for targeted integration contains a puromycin (PM) resistance gene expression cassette without promoter to avoid transient expression. Thus, detection of integration of recombinant sequences into the genome was detected by determining sensitivity of cells towards PM. A concentration of […] PM (which quantitatively eliminates wildtype MCF7 cells) was applied to select MCF7 cells with stably integrated expression cassettes. PM-resistant colonies selected with the same procedure as described above for the DT selection and visualized and quantified (between 12 and 14 days after start of selection) in the same manner as described above for toxin resistant colonies. Number of PM resistant colonies obtained with non-target guide sequences (scrambled gRNA, FIG. 1) reflect the nonspecific integration background. Increase in colonies (above nonspecific background) obtained with target-gene gRNAs which are PM-resistant but toxin sensitive reflect integration into just one target allele, leaving the other dph1 or dph2 allele unaffected. […]"}, "[3]": {"conditions": "DPH1 (gRNA length), TF eff. = 31%"}, "[4]": {"conditions": "DPH1 assay (integr. vs. (integr. + k.o.)), TF eff. = 67*%"}, "[5]": {"conditions": "DPH1 assay (integr. vs. k.o.), 10,000 seeded cells"}, "[6]": {"conditions": "DPH1 assay (integr. vs. k.o.), 20,000 seeded cells"}, "[7]": {"conditions": "DPH1 assay (integr. vs. k.o.), 40,000 seeded cells"}}, "note": "Several values for one entry are separate records, joined by “and”; a condition that tells them apart may be missing. Equal entries are not always repeated.", "data": [{"substance": "20 mer SpCas9 DPH1 gRNA: Plasmids encoding SpCas9 and Dph1 gRNA (target CAGGGCGGCCGAGACGGCCC, SEQ ID NO: 01) plus PAC donor plasmid, OriGene", "values": [{"measurement": "mono-allelic gene inactivation (toxin sensitive, HRM confirmed) versus inactivation of both alleles (DTr)", "setting": "DPH1 gene [1]", "value": "twice as frequent"}, {"measurement": "# of PM resistant colonies (40,000 seeded cells)", "setting": "DPH1 gene [2]; [3]", "value": "16 (2×) and 20 and 8"}, {"measurement": "# of PM resistant colonies (40,000 seeded cells)", "setting": "DPH1 gene [2]; DPH1 (gRNA length), TF eff. = 31%, listed as 20 mer Dph1 CRISPR Cas9 gRNA", "value": "16 (2×) and 20 and 8"}, {"measurement": "# of PM resistant colonies (40,000 seeded cells) (unheaded second sub-column: mean)", "setting": "DPH1 gene [2]; [3]", "value": 15}, {"measurement": "# of PM resistant colonies (40,000 seeded cells)", "setting": "DPH1 gene [2]; [4]", "value": "25 (2×) and 22 and 24"}, {"measurement": "# of PM resistant colonies (40,000 seeded cells)", "setting": "DPH1 gene [2]; DPH1 assay (integr. vs. (integr. + k.o.)), TF eff. = 67*%, listed as Dph1 CRISPR Cas9 gRNA", "value": "25 (2×) and 22 and 24"}, {"measurement": "# of PM resistant colonies (40,000 seeded cells) (unheaded second sub-column: mean)", "setting": "DPH1 gene [2]; [4]", "value": 24}, {"measurement": "# of PM resistant colonies (mean of the samples)", "setting": "DPH1 gene [2]; [5]", "value": 9}, {"measurement": "# of PM resistant colonies (mean of the samples)", "setting": "DPH1 gene [2]; [6]", "value": 13}, {"measurement": "# of PM resistant colonies (mean of the samples)", "setting": "DPH1 gene [2]; [7]", "value": 24}, {"measurement": "# of PM resistant colonies", "setting": "DPH1 gene [2]; MCF7, 10,000 seeded cells", "value": "7 and 10 (2×) and 29"}, {"measurement": "# of PM resistant colonies", "setting": "DPH1 gene [2]; MCF7, 10,000 seeded cells, listed as CRISPR Cas9 Dph1 gRNA", "value": "7 and 10 (2×)"}, {"measurement": "# of PM resistant colonies", "setting": "DPH1 gene [2]; MCF7, 20,000 seeded cells", "value": "18 and 13 (2×) and 6"}, {"measurement": "# of PM resistant colonies", "setting": "DPH1 gene [2]; MCF7, 20,000 seeded cells, listed as CRISPR Cas9 Dph1 gRNA", "value": "18 and 13 (2×) and 6"}, {"measurement": "# of PM resistant colonies", "setting": "DPH1 gene [2]; MCF7, 40,000 seeded cells", "value": "29 and 12 and 30 and 24"}, {"measurement": "# of PM resistant colonies", "setting": "DPH1 gene [2]; MCF7, 40,000 seeded cells, listed as CRISPR Cas9 Dph1 gRNA", "value": "29 and 12 and 30 and 24"}, {"measurement": "# of PM resistant colonies (80,000 seeded cells)", "setting": "DPH1 gene [2]", "value": "14 and 11 and 9 and 10"}, {"measurement": "integration efficacy in dependence on gRNA length", "setting": "DPH1 gene [2]; PMr colonies", "value": "Targeted integration clearly above background was observed"}]}, {"substance": "20 mer SpCas9 scRNA: Scrambled control gRNA GCACTACCAGAGCTAACTCA (SEQ ID NO: 03) with SpCas9 and donor plasmid [reference compound]", "values": [{"measurement": "# of PM resistant colonies (40,000 seeded cells)", "setting": "DPH1 gene [2]; DPH1 (gRNA length), TF eff. = 31%, listed as 20 mer scRNA", "value": "7 and 6 and 9 and 10"}, {"measurement": "# of PM resistant colonies (40,000 seeded cells) (unheaded second sub-column: mean)", "setting": "DPH1 gene [2]; [3]", "value": 8}, {"measurement": "# of PM resistant colonies (40,000 seeded cells)", "setting": "DPH1 gene [2]; DPH1 assay (integr. vs. (integr. + k.o.)), TF eff. = 67*%, listed as 20 mer scRNA", "value": "10 (2×) and 9 and 16"}, {"measurement": "# of PM resistant colonies (40,000 seeded cells)", "setting": "DPH1 gene [2]; DPH1 assay (integr. vs. (integr. + k.o.)), TF eff. = 67*%, listed as SCRNA", "value": 16}, {"measurement": "# of PM resistant colonies (40,000 seeded cells)", "setting": "DPH1 gene [2]; DPH1 assay (integr. vs. (integr. + k.o.)), TF eff. = 67*%, listed as scRNA", "value": "10 (2×) and 9"}, {"measurement": "# of PM resistant colonies (40,000 seeded cells) (unheaded second sub-column: mean)", "setting": "DPH1 gene [2]; [4]", "value": 11}, {"measurement": "# of PM resistant colonies (mean of the samples)", "setting": "DPH1 gene [2]; [5]", "value": 3}, {"measurement": "# of PM resistant colonies (mean of the samples)", "setting": "DPH1 gene [2]; [6]", "value": 9}, {"measurement": "# of PM resistant colonies (mean of the samples)", "setting": "DPH1 gene [2]; [7]", "value": 12}, {"measurement": "# of PM resistant colonies", "setting": "DPH1 gene [2]; MCF7, 10,000 seeded cells", "value": "3 (2×) and 2 and 4"}, {"measurement": "# of PM resistant colonies", "setting": "DPH1 gene [2]; MCF7, 10,000 seeded cells, listed as CRISPR Cas9 SCRNA", "value": "3 (2×) and 2 and 4"}, {"measurement": "# of PM resistant colonies", "setting": "DPH1 gene [2]; MCF7, 20,000 seeded cells", "value": "11 and 7 and 10 and 9"}, {"measurement": "# of PM resistant colonies", "setting": "DPH1 gene [2]; MCF7, 20,000 seeded cells, listed as CRISPR Cas9 SCRNA", "value": "11 and 10 and 9"}, {"measurement": "# of PM resistant colonies", "setting": "DPH1 gene [2]; MCF7, 20,000 seeded cells, listed as CRISPR Cas9 scRNA", "value": 7}, {"measurement": "# of PM resistant colonies", "setting": "DPH1 gene [2]; MCF7, 40,000 seeded cells", "value": "17 and 13 and 9 and 10"}, {"measurement": "# of PM resistant colonies", "setting": "DPH1 gene [2]; MCF7, 40,000 seeded cells, listed as CRISPR Cas9 SCRNA", "value": "17 and 9 and 10"}, {"measurement": "# of PM resistant colonies", "setting": "DPH1 gene [2]; MCF7, 40,000 seeded cells, listed as CRISPR Cas9 scRNA", "value": 13}, {"measurement": "# of PM resistant colonies (80,000 seeded cells)", "setting": "DPH1 gene [2]", "value": "4 and 3 and 5"}, {"measurement": "fold less PMr colonies than with DPH1-specific gRNA", "setting": "DPH1 gene [2]; otherwise identical conditions", "value": 2, "unit": "fold"}]}]}
